Holding throughout (format): binding
The subject of assay [1] is human monoclonal antibody CR57.
Assay [2] concerns human monoclonal antibody CRJB.
Assay [3] has as its system human monoclonal antibody CRJB. This is another data set of the same source.
The test system of assay [4] is human monoclonal antibody CR57. The source holds these as a separate data set.
Assay [5] deals with human monoclonal antibody CRJA.
For assay [6], the system named is human monoclonal antibody CRJA. The source holds these as a separate data set.

As to DFVEVHLPDVHNQVS, the “Binding of human monoclonal antibody CR57 to linear peptide (PEPSCAN-ELISA signal)” value in assay [1] came to 96. Besides, the “Binding of CRJB to looped/cyclic peptide (PEPSCAN-ELISA signal)” value (from here on “Binding of CRJB to looped/cyclic peptide”) in assay [2] is 92. Also, the “Binding of human monoclonal antibody CRJB to linear peptide (PEPSCAN-ELISA signal)” value in assay [3] is recorded as 141. Also, the “Binding of CR57 to looped/cyclic peptide (PEPSCAN-ELISA signal)” value (shortened to “Binding of CR57 to looped/cyclic peptide”) in assay [4] was 113. The “Binding of CRJA to looped/cyclic peptide (PEPSCAN-ELISA signal)” value (“Binding of CRJA to looped/cyclic peptide” below) in assay [5] is on record as 113. In assay [6], the “Binding of human monoclonal antibody CRJA to linear peptide (PEPSCAN-ELISA signal)” value came to 92.

For the sequence FRRLSHLRKLVPGFG, in assay [1], the “Binding of CR57 to linear peptide (PEPSCAN-ELISA signal)” value (from here on “Binding of CR57 to linear peptide”) is recorded as 90. In addition, the “Binding of CRJB (10 μg/ml) to looped/cyclic peptide (PEPSCAN-ELISA)” value in assay [2] is listed as 54. Moreover, the “Binding of CRJB to linear peptide (PEPSCAN-ELISA signal)” value (“Binding of CRJB to linear peptide” below) in assay [3] was 108. In addition, the “Binding of CR57 (10 μg/ml) to looped/cyclic peptide (PEPSCAN-ELISA)” value in assay [4] turned out to be 128. Besides, the “Binding of CRJA (10 μg/ml) to looped/cyclic peptide (PEPSCAN-ELISA)” value in assay [5] turned out to be 111. Also, the “Binding of CRJA to linear peptide (PEPSCAN-ELISA signal)” value (shortened to “Binding of CRJA to linear peptide”) in assay [6] is 106.

For the sequence GVAVSSTYCSTNHDY, in assay [1], the “Binding of CR57 to linear peptide” value was 79. The “Binding of CRJB (10 μg/ml) to looped/cyclic peptide (PEPSCAN-ELISA signal)” value in assay [2] was found to be 80. In addition, the “Binding of CRJB to linear peptide” value in assay [3] is 114. Further, the “Binding of CR57 (10 μg/ml) to looped/cyclic peptide (PEPSCAN-ELISA signal)” value in assay [4] is on record as 111. The “Binding of CRJA (10 μg/ml) to looped/cyclic peptide (PEPSCAN-ELISA signal)” value in assay [5] is 96. Besides, in assay [6], the “Binding of CRJA to linear peptide” value came out at 83.

GRCHPHVNGVFFNGI: the “Binding of CR57 to linear peptide” value in assay [1] is 117. In assay [2], the “Binding of CRJB (10 μg/ml) to looped/cyclic peptide (PEPSCAN-ELISA)” value came out at 102. Besides, the “Binding of CRJB to linear peptide” value in assay [3] is recorded as 113. Moreover, the “Binding of CR57 (10 μg/ml) to looped/cyclic peptide (PEPSCAN-ELISA)” value in assay [4] is given as 110. The “Binding of CRJA (10 μg/ml) to looped/cyclic peptide (PEPSCAN-ELISA)” value in assay [5] was found to be 104. For the same sequence, the “Binding of CRJA to linear peptide” value in assay [6] is listed as 100.

Turning to VEVHLPDVHNQVSGV, the “Binding of human monoclonal antibody CR57 to linear peptide (PEPSCAN-ELISA signal)” value in assay [1] worked out at 106. For the same sequence, in assay [2], the “Binding of CRJB to looped/cyclic peptide” value was determined as 104. In addition, the “Binding of human monoclonal antibody CRJB to linear peptide (PEPSCAN-ELISA signal)” value in assay [3] stood at 141. Moreover, the “Binding of CR57 to looped/cyclic peptide” value in assay [4] turned out to be 138. Further, the “Binding of CRJA to looped/cyclic peptide” value in assay [5] is recorded as 120. The “Binding of human monoclonal antibody CRJA to linear peptide (PEPSCAN-ELISA signal)” value in assay [6] is listed as 117.

As for DPSTVFKDGDEAEDF, the “Binding of human monoclonal antibody CR57 to linear peptide (PEPSCAN-ELISA signal)” value in assay [1] turned out to be 98. Besides, the “Binding of CRJB to looped/cyclic peptide” value in assay [2] was found to be 110. The “Binding of human monoclonal antibody CRJB to linear peptide (PEPSCAN-ELISA signal)” value in assay [3] amounted to 147. The “Binding of CR57 to looped/cyclic peptide” value in assay [4] was 134. The “Binding of CRJA to looped/cyclic peptide” value in assay [5] is 110. For the same sequence, the “Binding of human monoclonal antibody CRJA to linear peptide (PEPSCAN-ELISA signal)” value in assay [6] is on record as 132.

In the case of ESSVIPLVHPLADPS, the “Binding of CR57 to linear peptide” value in assay [1] turned out to be 104. The “Binding of CRJB (10 μg/ml) to looped/cyclic peptide (PEPSCAN-ELISA)” value in assay [2] worked out at 92. Besides, the “Binding of CRJB to linear peptide” value in assay [3] was determined as 138. Further, the “Binding of CR57 (10 μg/ml) to looped/cyclic peptide (PEPSCAN-ELISA)” value in assay [4] was found to be 108. Moreover, in assay [5], the “Binding of CRJA (10 μg/ml) to looped/cyclic peptide (PEPSCAN-ELISA)” value was determined as 91. Besides, the “Binding of CRJA to linear peptide” value in assay [6] was determined as 121.

Consider HLVVEELVRKREECL, for which the “Binding of CR57 to linear peptide” value in assay [1] amounted to 82. For the same sequence, the “Binding of CRJB (10 μg/ml) to looped/cyclic peptide (PEPSCAN-ELISA)” value in assay [2] is listed as 105. Also, the “Binding of CRJB to linear peptide” value in assay [3] amounted to 123. Also, the “Binding of CR57 (10 μg/ml) to looped/cyclic peptide (PEPSCAN-ELISA)” value in assay [4] was determined as 110. Also, the “Binding of CRJA (10 μg/ml) to looped/cyclic peptide (PEPSCAN-ELISA)” value in assay [5] is reported as 110. For the same sequence, the “Binding of CRJA to linear peptide” value in assay [6] is given as 111.

Consider DEGCTNLSGFSYMEL, for which, in assay [1], the “Binding of CR57 to linear peptide” value was 1. For the same sequence, the “Binding of CRJB (10 μg/ml) to looped/cyclic peptide (PEPSCAN-ELISA signal)” value in assay [2] came out at 60. Further, the “Binding of CRJB to linear peptide” value in assay [3] is given as 23. For the same sequence, the “Binding of CR57 (10 μg/ml) to looped/cyclic peptide (PEPSCAN-ELISA signal)” value in assay [4] was found to be 1. For the same sequence, the “Binding of CRJA (10 μg/ml) to looped/cyclic peptide (PEPSCAN-ELISA signal)” value in assay [5] amounted to 57. The “Binding of CRJA to linear peptide” value in assay [6] amounted to 54.

For the sequence SRVFPSGKCSGVAVS, the “Binding of CR57 to linear peptide” value in assay [1] is 100. For the same sequence, the “Binding of CRJB (10 μg/ml) to looped/cyclic peptide (PEPSCAN-ELISA signal)” value in assay [2] is 89. In addition, the “Binding of CRJB to linear peptide” value in assay [3] is listed as 125. Besides, in assay [4], the “Binding of CR57 (10 μg/ml) to looped/cyclic peptide (PEPSCAN-ELISA signal)” value is reported as 112. The “Binding of CRJA (10 μg/ml) to looped/cyclic peptide (PEPSCAN-ELISA signal)” value in assay [5] turned out to be 92. Moreover, the “Binding of CRJA to linear peptide” value in assay [6] turned out to be 107.

For the sequence MDGTWVAMQTSNETK, the “Binding of CR57 to linear peptide” value in assay [1] was 97. In addition, the “Binding of CRJB (10 μg/ml) to looped/cyclic peptide (PEPSCAN-ELISA)” value in assay [2] was 82. For the same sequence, the “Binding of CRJB to linear peptide” value in assay [3] is reported as 97. Moreover, in assay [4], the “Binding of CR57 (10 μg/ml) to looped/cyclic peptide (PEPSCAN-ELISA)” value is recorded as 114. Moreover, the “Binding of CRJA (10 μg/ml) to looped/cyclic peptide (PEPSCAN-ELISA)” value in assay [5] came out at 90. Also, the “Binding of CRJA to linear peptide” value in assay [6] was 85.

With DYRWLRTVKTTKESL, the “Binding of CR57 to linear peptide” value in assay [1] is 54. The “Binding of CRJB (10 μg/ml) to looped/cyclic peptide (PEPSCAN-ELISA signal)” value in assay [2] amounted to 49. For the same sequence, the “Binding of CRJB to linear peptide” value in assay [3] is recorded as 111. The “Binding of CR57 (10 μg/ml) to looped/cyclic peptide (PEPSCAN-ELISA signal)” value in assay [4] was determined as 46. Besides, the “Binding of CRJA (10 μg/ml) to looped/cyclic peptide (PEPSCAN-ELISA signal)” value in assay [5] worked out at 45. For the same sequence, in assay [6], the “Binding of CRJA to linear peptide” value was 55.

(Values after patent publication US20060263802A1 (priority 2003, published 2006).)
